Test results: patent US11446287B2, “Compounds and methods for EP300 or CBP modulation and indications therefor” (Opna Immuno-Oncology SA, priority 2019, dated 2022)

Molecular target: T1, Recombinant human EP300 containing the bromodomain (EP300-BD (1040-1161)) (Homo sapiens, UniProt Q09472)
T1 construct: Recombinant human EP300 bromodomain (EP300-BD (1040-1161)); made in house; host or cells: E. coli BL21-CodonPlus (DE3), modified pET vector
T1 sequence (Q09472 1040-1161): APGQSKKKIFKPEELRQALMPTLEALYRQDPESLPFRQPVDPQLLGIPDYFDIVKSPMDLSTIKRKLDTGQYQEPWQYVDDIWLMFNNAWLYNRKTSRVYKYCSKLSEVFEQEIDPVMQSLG
Assay: EP300 Alphascreen binding assay
How it was run: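 Displacement of a biotinylated acetyl-K56 histone H3 peptide from the N-His bromodomain construct (1040-1161) measured by AlphaScreen proximity, beads at 7.5 μg/ml final, read 60 min after addition. Protein, peptide and compound first incubated 1 h at room temperature, pH 7.5 HEPES buffer; IC50 by four-parameter logistic fit.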

**Q.** Cc1noc(C)c1-c1cnc2c(c1)c(-c1ccc(C(=O)O)cc1Cl)cn2C(c1ccccn1)C1CCCC1 (stereo not drawn) [P-0027, 3-chloro-4-(1-(cyclopentyl(pyridin-2-yl)methyl)-5-(3,5-dimethylisoxazol-4-yl)-1H-pyrrolo[2,3-b]pyridin-3-yl)benzoic acid] was tested. Which IC50 did it give?
**A.** 0.1 to 1000 nM

**Q.** Which IC50 does the source give for Cc1cc(-c2cn(C(c3ccccn3)C3CCCC3)c3ncc(-c4c(C)noc4C)cc23)ccc1C(=O)O (stereo not drawn) [P-0028, 4-(1-(cyclopentyl(pyridin-2-yl)methyl)-5-(3,5-dimethylisoxazol-4-yl)-1H-pyrrolo[2,3-b]pyridin-3-yl)-2-methylbenzoic acid] here?
**A.** 0.1 to 1000 nM

**Q.** How did the IC50 turn out when Cc1noc(C)c1-c1cnc2c(c1)c(-c1ccc(C(=O)O)c(C(F)(F)F)c1)cn2C(c1ccccn1)C1CCCC1 (stereo not drawn) [P-0029, 4-(1-(cyclopentyl(pyridin-2-yl)methyl)-5-(3,5-dimethylisoxazol-4-yl)-1H-pyrrolo[2,3-b]pyridin-3-yl)-2-(trifluoromethyl)benzoic acid] was run?
**A.** 0.1 to 1000 nM

**Q.** Cc1noc(C)c1-c1cnc2c(c1)c(-c1ccc(C(=O)O)c(O)c1)cn2C(c1ccccn1)C1CCCC1 (stereo not drawn) [P-0030, 4-(1-(cyclopentyl(pyridin-2-yl)methyl)-5-(3,5-dimethylisoxazol-4-yl)-1H-pyrrolo[2,3-b]pyridin-3-yl)-2-hydroxybenzoic acid] was tested. Which IC50 did it give?
**A.** 1000 to 8000 nM

**Q.** Which IC50 does the source give for Cc1noc(C)c1-c1cnc2c(c1)c(-c1ccc(CC(=O)O)cc1)cn2C(c1ccccn1)C1CCCC1 (stereo not drawn) [P-0031, 2-(4-(1-(cyclopentyl(pyridin-2-yl)methyl)-5-(3,5-dimethylisoxazol-4-yl)-1H-pyrrolo[2,3-b]pyridin-3-yl)phenyl)acetic acid] here?
**A.** 0.1 to 1000 nM

**Q.** Cc1noc(C)c1-c1cnc2c(c1)c(-c1ccc(C(C)(C)C(=O)O)cc1)cn2C(c1ccccn1)C1CCCC1 (stereo not drawn) [P-0032, 2-(4-(1-(cyclopentyl(pyridin-2-yl)methyl)-5-(3,5-dimethylisoxazol-4-yl)-1H-pyrrolo[2,3-b]pyridin-3-yl)phenyl)-2-methylpropanoic acid] was tested. Which IC50 did it give?
**A.** 0.1 to 1000 nM

**Q.** Which IC50 does the source give for Cc1noc(C)c1-c1cnc2c(c1)c(-c1ccc(C3(C(=O)O)CC3)cc1)cn2C(c1ccccn1)C1CCCC1 (stereo not drawn) [P-0033, 1-(4-(1-(cyclopentyl(pyridin-2-yl)methyl)-5-(3,5-dimethylisoxazol-4-yl)-1H-pyrrolo[2,3-b]pyridin-3-yl)phenyl)cyclopropane-1-carboxylic acid] here?
**A.** 0.1 to 1000 nM

**Q.** Which IC50 does the source give for Cc1noc(C)c1-c1cnc2c(c1)c(-c1ccc(C(F)(F)C(=O)O)cc1)cn2C(c1ccccn1)C1CCCC1 (stereo not drawn) [P-0034, 2-(4-(1-(cyclopentyl(pyridin-2-yl)methyl)-5-(3,5-dimethylisoxazol-4-yl)-1H-pyrrolo[2,3-b]pyridin-3-yl)phenyl)-2,2-difluoroacetic acid] here?
**A.** 0.1 to 1000 nM

**Q.** With COc1ncccc1-n1cc(-c2ccc(C(=O)O)cc2OC(F)(F)F)c2cc(-c3c(C)noc3C)cnc21 [P-0316, 4-(5-(3,5-dimethylisoxazol-4-yl)-1-(2-methoxypyridin-3-yl)-1H-pyrrolo[2,3-b]pyridin-3-yl)-3-(trifluoromethoxy)benzoic acid] as the compound, how does the IC50 read?
**A.** 0.1 to 1000 nM

**Q.** Which IC50 does the source give for Cc1ncccc1-n1cc(-c2ccc(C(=O)O)cc2OC(F)(F)F)c2cc(-c3c(C)noc3C)cnc21 [P-0317, 4-(5-(3,5-dimethylisoxazol-4-yl)-1-(2-methylpyridin-3-yl)-1H-pyrrolo[2,3-b]pyridin-3-yl)-3-(trifluoromethoxy)benzoic acid] here?
**A.** 0.1 to 1000 nM

**Q.** For Cc1noc(C)c1-c1cnc2c(c1)c(-c1ccc(C(=O)O)cc1OC(F)(F)F)cn2-c1cnn(C)c1 [P-0318, 4-(5-(3,5-dimethylisoxazol-4-yl)-1-(1-methyl-1H-pyrazol-4-yl)-1H-pyrrolo[2,3-b]pyridin-3-yl)-3-(trifluoromethoxy)benzoic acid], which IC50 is on record?
**A.** 0.1 to 1000 nM

**Q.** How did the IC50 turn out when Cc1noc(C)c1-c1cnc2c(c1)c(-c1ccc(C(=O)O)cc1OC(F)(F)F)cn2-c1cncnc1 [P-0319, 4-(5-(3,5-dimethylisoxazol-4-yl)-1-(pyrimidin-5-yl)-1H-pyrrolo[2,3-b]pyridin-3-yl)-3-(trifluoromethoxy)benzoic acid] was run?
**A.** 0.1 to 1000 nM

**Q.** How did the IC50 turn out when Cc1noc(C)c1-c1cnc2c(c1)c(-c1ccc(C(=O)O)cc1OC(F)(F)F)cn2-c1cnc(N)nc1 [P-0320, 4-(1-(2-aminopyrimidin-5-yl)-5-(3,5-dimethylisoxazol-4-yl)-1H-pyrrolo[2,3-b]pyridin-3-yl)-3-(trifluoromethoxy)benzoic acid] was run?
**A.** 0.1 to 1000 nM

**Q.** With Cc1noc(C)c1-c1cnc2c(c1)c(-c1ccc(C(=O)O)cc1OC(F)(F)F)cn2-c1cnc(N(C)C)nc1 [P-0321] as the compound, how does the IC50 read?
**A.** 0.1 to 1000 nM

**Q.** Which IC50 does the source give for Cc1noc(C)c1-c1cnc2c(c1)c(-c1ccc(C(=O)O)cc1OC(F)(F)F)cn2-c1ccc(C(=O)O)cc1 [P-0322, 4-(1-(4-carboxyphenyl)-5-(3,5-dimethylisoxazol-4-yl)-1H-pyrrolo[2,3-b]pyridin-3-yl)-3-(trifluoromethoxy)benzoic acid] here?
**A.** 0.1 to 1000 nM

**Q.** Which IC50 does the source give for Cc1noc(C)c1-c1cnc2c(c1)c(-c1ccc(C(=O)O)cc1OC(F)(F)F)cn2-c1ccc(C(N)=O)cc1 [P-0323, 4-(1-(4-carbamoylphenyl)-5-(3,5-dimethylisoxazol-4-yl)-1H-pyrrolo[2,3-b]pyridin-3-yl)-3-(trifluoromethoxy)benzoic acid] here?
**A.** 0.1 to 1000 nM

**Q.** For COc1cc(C(=O)O)ncc1-c1cn(-c2ccncc2Cl)c2ncc(-c3c(C)noc3C)cc12 [P-0324, 5-(1-(3-chloropyridin-4-yl)-5-(3,5-dimethylisoxazol-4-yl)-1H-pyrrolo[2,3-b]pyridin-3-yl)-4-methoxypicolinic acid], which IC50 is on record?
**A.** 0.1 to 1000 nM

**Q.** Which IC50 does the source give for Cc1noc(C)c1-c1cnc2c(c1)c(-c1ccc(C(=O)O)cc1OCC(F)F)cn2[C@H]1CCOC1 [P-0325, (S)-3-(2,2-difluoroethoxy)-4-(5-(3,5-dimethylisoxazol-4-yl)-1-(tetrahydrofuran-3-yl)-1H-pyrrolo[2,3-b]pyridin-3-yl)benzoic acid] here?
**A.** 0.1 to 1000 nM

**Q.** CCn1cc(-n2cc(-c3ccc(C(=O)O)cc3OCC(F)F)c3cc(-c4c(C)noc4C)cnc32)c(C)n1 [P-0326, 3-(2,2-difluoroethoxy)-4-(5-(3,5-dimethylisoxazol-4-yl)-1-(1-ethyl-3-methyl-1H-pyrazol-4-yl)-1H-pyrrolo[2,3-b]pyridin-3-yl)benzoic acid] was tested. Which IC50 did it give?
**A.** 0.1 to 1000 nM

**Q.** For Cc1noc(C)c1-c1cnc2c(c1)c(-c1c(F)cc(C(=O)O)cc1OCC(F)F)cn2-c1ccccc1 [P-0327, 3-(2,2-difluoroethoxy)-4-(5-(3,5-dimethylisoxazol-4-yl)-1-phenyl-1H-pyrrolo[2,3-b]pyridin-3-yl)-5-fluorobenzoic acid], which IC50 is on record?
**A.** 0.1 to 1000 nM

**Q.** For Cc1noc(C)c1-c1cnc2c(c1)c(-c1ccc(C(=O)O)cc1OCC(F)F)cn2-c1cnc(N2CCC2)nc1 [P-0328, 4-(1-(2-(azetidin-1-yl)pyrimidin-5-yl)-5-(3,5-dimethylisoxazol-4-yl)-1H-pyrrolo[2,3-b]pyridin-3-yl)-3-(2,2-difluoroethoxy)benzoic acid], which IC50 is on record?
**A.** 0.1 to 1000 nM

**Q.** CCOc1cc(C(=O)O)nc(OCC)c1-c1cn(-c2ccc(F)cc2F)c2ncc(-c3c(C)noc3C)cc12 [P-0329, 5-(1-(2,4-difluorophenyl)-5-(3,5-dimethylisoxazol-4-yl)-1H-pyrrolo[2,3-b]pyridin-3-yl)-4,6-diethoxypicolinic acid] was tested. Which IC50 did it give?
**A.** 0.1 to 1000 nM

**Q.** With CCOc1cc(C(=O)O)c(F)cc1-c1cn(-c2ccc(F)cc2F)c2ncc(-c3c(C)noc3C)cc12 [P-0330, 4-(1-(2,4-difluorophenyl)-5-(3,5-dimethylisoxazol-4-yl)-1H-pyrrolo[2,3-b]pyridin-3-yl)-5-ethoxy-2-fluorobenzoic acid] as the compound, how does the IC50 read?
**A.** 0.1 to 1000 nM

**Q.** With Cc1noc(C)c1-c1cnc2c(c1)c(-c1c(Cl)cc(C(=O)O)cc1OCC(F)F)cn2-c1cnc(N2CCC2)nc1 [P-0331, 4-(1-(2-(azetidin-1-yl)pyrimidin-5-yl)-5-(3,5-dimethylisoxazol-4-yl)-1H-pyrrolo[2,3-b]pyridin-3-yl)-3-chloro-5-(2,2-difluoroethoxy)benzoic acid] as the compound, how does the IC50 read?
**A.** 0.1 to 1000 nM

**Q.** Cc1noc(C)c1-c1cnc2c(c1)c(-c1c(Cl)cc(C(=O)O)cc1OCC(F)F)cn2-c1ccccc1 [P-0332, 3-chloro-5-(2,2-difluoroethoxy)-4-(5-(3,5-dimethylisoxazol-4-yl)-1-phenyl-1H-pyrrolo[2,3-b]pyridin-3-yl)benzoic acid] was tested. Which IC50 did it give?
**A.** 0.1 to 1000 nM

**Q.** For Cc1noc(C)c1-c1cnc2c(c1)c(-c1c(Cl)cc(C(=O)O)cc1OCC(F)F)cn2[C@H]1CCOC1 [P-0333, (S)-3-chloro-5-(2,2-difluoroethoxy)-4-(5-(3,5-dimethylisoxazol-4-yl)-1-(tetrahydrofuran-3-yl)-1H-pyrrolo[2,3-b]pyridin-3-yl)benzoic acid], which IC50 is on record?
**A.** 0.1 to 1000 nM

**Q.** Which IC50 does the source give for Cc1noc(C)c1-c1cnc2c(c1)c(-c1ccc(C(=O)O)cc1OC1CCC1)cn2-c1ncccc1C#N [P-0334, 4-(1-(3-cyanopyridin-2-yl)-5-(3,5-dimethylisoxazol-4-yl)-1H-pyrrolo[2,3-b]pyridin-3-yl)-3-cyclobutoxybenzoic acid] here?
**A.** 0.1 to 1000 nM

**Q.** Cc1noc(C)c1-c1cnc2c(c1)c(-c1ccc(C(=O)O)cc1OC(F)(F)F)cn2C1(CC#N)CCC1 [P-0335, 4-(1-(1-(cyanomethyl)cyclobutyl)-5-(3,5-dimethylisoxazol-4-yl)-1H-pyrrolo[2,3-b]pyridin-3-yl)-3-(trifluoromethoxy)benzoic acid] was tested. Which IC50 did it give?
**A.** 0.1 to 1000 nM

**Q.** Cc1noc(C)c1-c1cnc2c(c1)c(-c1ccc(C(=O)O)cc1OC(C)C)cn2-c1ncccc1C#N [P-0336, 4-(1-(3-cyanopyridin-2-yl)-5-(3,5-dimethylisoxazol-4-yl)-1H-pyrrolo[2,3-b]pyridin-3-yl)-3-isopropoxybenzoic acid] was tested. Which IC50 did it give?
**A.** 0.1 to 1000 nM

**Q.** With Cc1noc(C)c1-c1cnc2c(c1)c(-c1ccc(C(=O)O)cc1OC1CC1)cn2-c1ncccc1C#N [P-0337, 4-(1-(3-cyanopyridin-2-yl)-5-(3,5-dimethylisoxazol-4-yl)-1H-pyrrolo[2,3-b]pyridin-3-yl)-3-cyclopropoxybenzoic acid] as the compound, how does the IC50 read?
**A.** 0.1 to 1000 nM
